Experimental data taken from US7943576B2, “Methods of using enterostatin as inhibitor of angiogenesis” (priority 2005, dated 2011).
Entries after “also recorded” stand apart in the source; their conditions may differ. Read-outs that look alike come from different tables or passages of the source.

Tests used:
[1] = cited from earlier work; for duration of action on feeding: single injection
adipose tissue = experiment: in vitro human adipose tissue angiogenesis assay (fat fragments in fibrin clot); format: cell-based
Protocol: Tissue Preparation: Discarded fat from human surgery was cut into fragments approximately 1 mm thick and 2 mm in diameter. These fat fragments were placed in 96-well plates loaded with human thrombin solution (0.05 IU in 40 μL double distilled water/well). The fat fragments were placed in the prepared 96-well plates and covered with 100 μl clotting media. The clotting media consisted of fibrinogen (3 mg/ml) (Sigma Chemical Co., St. Louis, Mo.) and ε-amino caproic acid (0.5%) (Sigma Chemical Co., St. Louis, Mo.) in human placental vein angiogenesis model (HPVAM) media. […] The mixture was allowed to clot by incubation in 6% CO2, 94% air at 37° C. in a humidified incubator. After the media had gelled overnight, the fat-containing clot was supplemented with 1 mL HPVAM media containing 20% fetal bovine serum (GibcoBRL, Gaithersburg, Md.). The total volume of each well was 2 mL.
Angiogenic Evaluation: All wells were evaluated for angiogenic sprouting by examination at 40× and 200× magnification by an unbiased observer using an inverted microscope. Angiogenesis was defined by two criteria. First, the number of wells (as a percentage of the total plated) that developed new vessel growth was termed initiation. This was defined by the presence of at least three angiogenic sprouts of approximately 0.5 mm in length growing from the periphery of the fat tissue. The degree of angiogenic response was assessed using a semi-quantitative visual rating scale as described in E. A. Woltering et al., “Development of a novel in vitro human tissue-based angiogenesis assay to evaluate the effect of antiangiogenic drugs,” Ann. Surg., vol. […] The tissue was visually divided into four quadrants. Each quadrant was given a numeric score from 0-4 based on the length and density of the new vessel growth, and on the percentage of the quadrant's circumference involved with the angiogenic response. Numeric results from the four quadrants were summed and expressed as an angiogenic index (AI, 1-16). This rating scale has been validated using multiple independent observers as described in C. Hornick et al., “Inhibition of angiogenic initiation and disruption of newly established human vascular networks by juice of Morinda citrifola (Noni),” Angiogenesis, vol.

[2] = tested on: SK-N-MC neuroepithelioma cells; details: low affinity binding; cited from earlier work
[3] = humans, intravenous injection; cited from earlier work
[4] = target: T1, cholecystokinin A receptors (Homo sapiens, UniProt P32238); details: cited from earlier work
T1 sequence (P32238 1-428): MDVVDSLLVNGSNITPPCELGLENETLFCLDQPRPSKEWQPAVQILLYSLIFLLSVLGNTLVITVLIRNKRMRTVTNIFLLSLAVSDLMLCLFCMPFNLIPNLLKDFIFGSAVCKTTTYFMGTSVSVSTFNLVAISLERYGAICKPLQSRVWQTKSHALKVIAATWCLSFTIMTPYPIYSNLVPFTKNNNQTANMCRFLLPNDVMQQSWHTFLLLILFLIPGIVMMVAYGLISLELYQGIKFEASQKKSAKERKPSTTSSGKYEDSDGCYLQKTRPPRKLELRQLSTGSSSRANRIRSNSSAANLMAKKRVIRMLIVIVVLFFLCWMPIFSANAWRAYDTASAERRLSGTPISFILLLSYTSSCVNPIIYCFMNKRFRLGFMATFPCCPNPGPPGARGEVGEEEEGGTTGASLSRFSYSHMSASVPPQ

HepG2 cells = experiment: microarray gene analysis, HepG2 cells; format: cell-based, human; details: HepG2 cells (counted together with GT1-7); 60 minutes; 0.01, 0.1 and 1.0 uM; regulated by at least 1.7×
Protocol: (§1) HepG2 cells (a human liver carcinoma cell line) and GT1-7 cells (a neuronal cell line) were cultured by standard procedures and incubated with varying concentrations of enterostatin for 60 minutes. At the completion of the incubation period, cells were lysed, recovered from the plates, and extracted for RNA using TRI REAGENT® (Molecular Research Center, Inc, Cincinnati, Ohio). The RNA was then purified using the RNeasy® Mini Kit (Qiagen, Valencia, Calif.). RNA quality was visually assessed using agarose gel electrophoresis and quantified by UV spectrophotometric analysis (A260 and A280 nm). All RNA had A260/A280 ratios greater than 1.75 and less than 2.10. RNA integrity was checked using an RNA 6000 nano lab chip kit (Agilent Technologies, Foster City, Calif.). […]
(§2) Slides were scanned using a GSI Lumonics ScanArray 5000 laser scanner (Perkin Elmer Life Sciences, Inc., Boston, Mass.) at a relatively low and a relatively high laser intensity and expression data was analyzed using the QuantArray V3.0 software package (Perkin Elmer Life Sciences, Inc.). […]

[5] = target: T2, Neuropeptide Y1 receptors (Homo sapiens, UniProt P25929); details: cited from earlier work
T2 sequence (P25929 1-384): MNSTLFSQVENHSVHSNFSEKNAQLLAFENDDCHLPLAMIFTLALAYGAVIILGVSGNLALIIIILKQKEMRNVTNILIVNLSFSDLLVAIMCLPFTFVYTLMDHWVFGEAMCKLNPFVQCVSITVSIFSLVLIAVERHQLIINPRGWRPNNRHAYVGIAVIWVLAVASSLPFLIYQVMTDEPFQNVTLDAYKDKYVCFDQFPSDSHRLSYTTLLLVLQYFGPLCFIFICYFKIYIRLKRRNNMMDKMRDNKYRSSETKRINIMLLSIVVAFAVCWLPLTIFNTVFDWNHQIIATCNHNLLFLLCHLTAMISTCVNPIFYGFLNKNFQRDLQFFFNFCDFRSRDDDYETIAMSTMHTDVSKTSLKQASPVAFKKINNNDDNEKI

[6] = occurring mainly into lymphatic system; cited from earlier work
GT1-7 cells = experiment: microarray gene analysis, GT1-7 cells; format: cell-based; details: GT1-7 cells (counted together with HepG2); 60 minutes; 0.01, 0.1 and 1.0 uM; regulated by at least 1.7×
Protocol: as §1, §2

umbilical veins = experiment: human umbilical vein angiogenesis model; format: cell-based
Source text: In addition, another angiogenesis model was tried, the human umbilical vein model as described by Woltering et al. (61). This model uses discarded umbilical veins to assay the effect of various compounds on angiogenesis.

kappa-opioid receptors = kappa-opioid receptors (Homo sapiens, UniProt P41145); details: cited from earlier work
islet cells = details: cited from earlier work
[7] = low affinity binding, brain membrane preparation; cited from earlier work
galanin receptors = details: cited from earlier work
[8] = target: beta subunit of ATP synthase (Homo sapiens, UniProt P06576); details: cited from earlier work
[9] = rats adapted to three-choice macronutrient diet

Chain of beta subunit of ATP synthase (P06576 48-529): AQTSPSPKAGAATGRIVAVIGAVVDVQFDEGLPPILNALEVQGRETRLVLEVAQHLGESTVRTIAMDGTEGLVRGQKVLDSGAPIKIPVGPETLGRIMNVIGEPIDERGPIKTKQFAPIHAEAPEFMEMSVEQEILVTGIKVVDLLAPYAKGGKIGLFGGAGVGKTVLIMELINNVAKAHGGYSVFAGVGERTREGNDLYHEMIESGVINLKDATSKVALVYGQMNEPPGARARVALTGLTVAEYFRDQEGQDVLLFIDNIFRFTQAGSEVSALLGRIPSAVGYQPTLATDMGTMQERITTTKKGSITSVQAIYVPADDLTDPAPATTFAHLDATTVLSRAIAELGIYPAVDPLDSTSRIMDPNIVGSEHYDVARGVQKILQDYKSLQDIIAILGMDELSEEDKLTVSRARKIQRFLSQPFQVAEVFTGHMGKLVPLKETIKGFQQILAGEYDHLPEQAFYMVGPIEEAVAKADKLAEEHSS
Chain of kappa-opioid receptors (P41145 whole entry): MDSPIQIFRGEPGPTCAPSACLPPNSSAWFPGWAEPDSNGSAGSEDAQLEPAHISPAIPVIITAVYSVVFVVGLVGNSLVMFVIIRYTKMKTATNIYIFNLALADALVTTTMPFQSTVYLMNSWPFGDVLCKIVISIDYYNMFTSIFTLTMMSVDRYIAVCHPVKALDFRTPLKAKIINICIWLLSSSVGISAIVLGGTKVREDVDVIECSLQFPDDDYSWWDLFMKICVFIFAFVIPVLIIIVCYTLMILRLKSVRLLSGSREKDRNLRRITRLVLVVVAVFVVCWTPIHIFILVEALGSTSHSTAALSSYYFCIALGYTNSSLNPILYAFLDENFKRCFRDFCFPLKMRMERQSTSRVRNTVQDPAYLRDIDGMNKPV

APGP-ornithine [reference compound]
food intake in rats ([1]; rat, in vivo): shown to affect food intake in rats | inhibitory effect on the angiogenic index (FIG. 4 legend) (adipose tissue): lack of an inhibitory effect | inhibition of angiogenesis (FIG. 4) (adipose tissue; concentrations from 10^−6 to 10^−9 M): none of these concentrations of the metabolite inhibited angiogenesis

enterostatin (VPDPR; printed: Val-Pro-Asp-Pro-Arg) [aminoterminal pentapeptide of procolipase released when procolipase is converted into colipase]
daily intake of dietary fat ([1]; chronic icv administration from mini-osmotic pumps, single-choice HF or two-choice HF/LF diet): attenuated the daily intake of dietary fat | carbohydrate or protein intake [1, 9]: no effect on either carbohydrate or protein intake | intake of fat macronutrient [1, 9]: reduced intake of the fat macronutrient | duration of action on feeding ([1]; rats adapted to a six-hour feeding schedule): lasting up to six hours | duration of action on feeding ([1]; rats adapted to ad-libitum feeding): up to 24 hours | intake of HF vs LF diet ([1]; two-choice high-fat and low-fat diet paradigm): reduced only intake of the HF diet | concentration least inhibitory of angiogenesis as measured by the angiogenic index (FIG. 3) (adipose tissue): 10^−10 M | new blood vessels (photomicrograph, FIG. 1B vs control FIG. 1A) (adipose tissue; 10^−9 M enterostatin): fewer new blood vessels than the control tissue | angiogenic response (adipose tissue; concentrations from about 10^−6 to about 10^−9 M): effectively blocked the angiogenic response | concentration giving the greatest inhibition of angiogenic index (FIG. 2) (adipose tissue; day 15, U-shaped dose response curve): 10^−9 M | effect on the angiogenic index (FIG. 2) (adipose tissue; range of 10^−8 to 10^−6 M): dose dependent inhibition | Kd [2]: 40 nM | food intake [3]: not found to reduce food intake | subjective feeling of hunger [3]: reduce the subjective feeling of hunger | binding to cholecystokinin A receptors [4]: not to bind | number of genes related to the angiogenesis pathway upregulated or downregulated (HepG2 cells): 22 genes | binding to Neuropeptide Y1 receptors [5]: not to bind | absorption across the intestine [6]: limited and slow | number of genes related to the angiogenesis pathway upregulated or downregulated (GT1-7 cells): 22 genes | inhibition of angiogenesis (umbilical veins): effective in inhibiting angiogenesis | binding to kappa-opioid receptors (kappa-opioid receptors): not to bind | insulin secretion from islets (islet cells; 10^−9 to 10^−5 M, 16.7 mM glucose, dose-dependent): inhibited insulin secretion from islets | insulin secretion from isolated pancreatic islets (islet cells; doses of 10^−10 to 10^−6M): inhibit insulin secretion | Kd [7]: 230 nM | binding to galanin receptors (galanin receptors): not to bind | binding to purified beta subunit of ATP synthase [8]: bind to this purified protein; also recorded: binds to the beta subunit of ATP synthase

β-casomorphin1-7 [reference compound]
inhibitory effect on the angiogenic index (FIG. 4 legend) (adipose tissue): lack of an inhibitory effect | effect on angiogenesis (FIG. 4) (adipose tissue; concentrations of 10^−6 and 10^−7 M): no effect on angiogenesis | binding to purified beta subunit of ATP synthase [8]: bind to this purified protein
